Measured values: paper PMC8353992 (Journal of medicinal chemistry, 2021)

How the values were obtained:
[1] = for decrease in CLint compared to 36: human, rat, s9
[2] = human, pH 7.4
SARS-CoV-2 3CL^pro = SARS-CoV-2 3CL^pro (Severe acute respiratory syndrome coronavirus 2, UniProt P0DTD1); type: biochemical

O=C(Cc1cccnc1)N(Cc1cccc(Cl)c1)c1ccc(-c2cn[nH]c2)cc1 [Compound 42, N-[(3-Chlorophenyl)methyl]-N-[4-(1H-pyrazol-4-yl)phenyl]-2-(3-pyridyl)acetamide]
decrease in CLint compared to 36 [1]: 2 fold

O=C(Nc1ccc(N(Cc2ccsc2)C(=O)Cn2nnc3ccccc32)cc1)C1CC1 [Compound 1, reference compound]
microsomal clearance ([1]; microsomes): exceptionally high

O=C(Cn1nnc2ccccc21)N(Cc1cccc(Cl)c1)c1ccc(-c2cn[nH]c2)cc1 [Compound 36, N-(4-(1H-Pyrazol-4-yl)phenyl)-2-(1H-benzo[d][1,2,3]triazol-1-yl)-N-(3-chlorobenzyl)acetamide]
M1 metabolite formation (oxidation of the benzylic 3-chlorophenyl ring) [2]: 60% | M3 metabolite formation (cleavage of the 3-chlorobenzyl group) [2]: 7%

O=C(Cn1nnc2ccccc21)N(Cc1ccsc1)c1ccc(-c2cccnc2)cc1 [Compound 8, 2-(1H-Benzo[d][1,2,3]triazol-1-yl)-N-(4-(pyridin-3-yl)phenyl)-N-(thiophen-3-ylmethyl)acetamide]
ligand efficiency (LE) (SARS-CoV-2 3CL^pro): 0.27

O=C(Cc1cncnc1)N(Cc1cccc(Cl)c1)c1ccc(-c2cn[nH]c2)cc1 [Compound 43, N-[(3-Chlorophenyl)methyl]-N-[4-(1H-pyrazol-4-yl)phenyl]-2-pyrimidin-5-yl-acetamide]
decrease in CLint compared to 36 [1]: 4 fold
